The source of these data is patent publication US20230020319A1, “COMPOSITIONS AND METHODS FOR OPTOCHEMICAL CONTROL OF MTOR SIGNALING AND MTOR-DEPENDENT AUTOPHAGY” (The University of Hong Kong, priority 2021, published 2023).

“Also recorded” adds a separate entry of the source.

The test system of one series is mTORC1 signaling pathway. Description: Western blot of mTORC1 signaling (S6K phosphorylation). Format: cell-based. To be noted: compared with the control group, with or without light (420 nm, 70 mW/cm^2, 3 min). The method, then: (§1) FIG. 5 is a photomicrograph showing bands corresponding to each of p-S6K, S6K, p-Akt, Akt, mTOR, and GAPDH, respectively, from cells treated with each of DMSO (control), OSI-027, DEACM, and cOSI-027, respectively, each with (+) or without (−) exposure to light (420 nm, 70 mW/cm^2, 3 min).
(§2) To further investigate the mTOR inhibitory effect of OSI-027 and cOSI-027 with or without light irradiation, western blot was performed to analyze the protein expression level of mTOR pathway (FIG. 5). S6K and Akt phosphorylation ratios were chosen as markers for mTORC1 and mTORC2 signaling pathway investigation, respectively.
In general terms: In western blotting, separated proteins are transferred to a membrane and probed.

The next series deals with mTORC2 signaling pathway. As to the kind of experiment: Western blot of mTORC2 signaling (Akt phosphorylation). To be noted: compared with the control group, with or without light (420 nm, 70 mW/cm^2, 3 min). In kind it is cell-based. The protocol:
as §1, §2

A further series has as its system autophagy activity. Description: Western blot of autophagy level (LC3-II/LC3-I ratio). In kind it is cell-based. From the text:
FIGS. 6A-6B show results of Western blotting and quantification of autophagy. FIG. 6A is a photomicrograph showing bands corresponding to each of LC3-I, LC3-II, and GADPH in cells treated with each of DMSO (control), OSI-027, DEACM, and cOSI-027, respectively, each with (+) or without (−) exposure to light. FIG. 6B is a graph showing normalized LC3-II/LC3-I ratio (0-15) for each of the bands in FIG. 6A including DMSO, OSI-027, DEACM, and cOSI-027, each with or without exposure to light, respectively. Light irradiation was done with a 420 nm LED (70 mW/cm^2, 3 min).
mTORC1 inhibition leads to higher autophagy activity, resulting in enhanced protein degradation ability in the lysosome. Therefore, whether the photochemical-controlled mTOR inhibition strategy can be used for manipulating autophagy activity was investigated. Autophagy level was characterized by the LC3-II/LC3-I ratio through western blot analysis (FIGS. 6A-6B). 24 h after the drug treatment, OSI-027 increased the LC3-II/LC-I ratio compared with the control group, indicating a higher autophagy activity. And cOSI-027 treatment led to a higher LC3-II/LC3-I ratio after light irradiation, compared with non-irradiation group.

For series [1], the system named is mCherry-GFP-LC3 transfected HeLa cell line. As to the kind of experiment: CLSM of LC3 puncta in mCherry-GFP-LC3 cells. Format: cell-based. The text has this:
FIGS. 7A-7B are photomicrographs showing the presence of mCherry and/or GFP following exposure to different formulations and respective quantitative analysis. FIG. 7A is a panel of photomicrographs showing the presence of mCherry and/or GFP in cells treated with each of DMSO, OSI-027, DEACM, and cOSI-027, each with light irradiation or no light, respectively. FIG. 7B is a graph showing number of LC3 puncta per cell (0-300) for each of the groups in FIG. 7A. Light irradiation was done with a 420 nm LED (70 mW/cm^2, 3 min).
To further validate the photoactivated effect on autophagy, a mCherry-GFP-LC3 transfected HeLa cell line was established to accurately monitor the LC3 expression and subcellular localization.

The subject of the next series is cancer cells. As to the kind of experiment: MTT cell viability assay. In kind it is cell-based. The protocol:
FIG. 8 is a bar graph showing cell viability (0%-150%) for cell groups treated with each of DMSO (control), OSI-027, DEACM, and cOSI-027, each at 50 μM, respectively, each with (+) or without (−) exposure to light. Light irradiation was done with a 420 nm LED (70 mW/cm^2, 3 min).
To investigate the anti-cancer effect of this photo-activatable prodrug system, MTT assay was further conducted to analyze the cell viability after the treatment with different formulations.
For orientation: Tetrazolium dyes change colour on reduction, which living cells bring about.

For series [2] the following is noted: cited from earlier work.
Series [3] can be described thus: Photocleavage of cOSI-027 by HPLC, 420 nm light. In kind it is physicochemical. Conditions: 70 mW/cm^2. The method, then: FIGS. 4A and 4B show the photocleavage of cOSI-027 by HPLC and quantitative analysis. FIG. 4A is a line graph showing the photocleavage of cOSI-027 by HPLC analysis, with 0-1000 mA.U. at the wavelength (342 nm) for cOSI-027 and for OSI-027 when exposed to 420 nm light at 70 mW/cm^2 for 0, 1, 3, 5, 7, 10, or 15 min, respectively. FIG. 4B is a graph showing remaining cOSI-027 (0-400 μM) and released OSI-027 (0-300 μM) over light irradiation time (0, 1, 3, 5, 7, 10, or 15 min, respectively).
The optochemcial characteristics of the caged OSI-027 prodrug were analyzed by spectroscopy (FIGS. 3A-3C). The absorption peaks of the prodrug were located at 300 nm and 380 nm. The emission peak was located at 460 nm under 380 nm excitation. […] To further verify the photocleavage reaction after light irradiation, high performance liquid chromatography (HPLC) was utilized to monitor the cleavage and release of OSI-027 after light irradiation.

As for `COc1cccc2cc(-c3nc([C@H]4CC[C@H](C(=O)O)CC4)n4ncnc(N)c34)[nH]c12` [OSI-027, Trans-4-[4-amino-5-(7-methoxy-1H-indol-2-yl)imidazo[5,1-f][1,2,4]triazin-7-yl]-cyclohexanecarboxylic acid], the “phosphorylation of S6K (marker for mTORC1 signaling)” value in the series with mTORC1 signaling pathway was “decreased”. Moreover, the “phosphorylation of Akt (marker for mTORC2 signaling)” value in the series with mTORC2 signaling pathway was “decreased”. Besides, the LC3-II/LC3-I ratio entry with autophagy activity (24 h after the drug treatment, compared with the control group) is recorded as “increased”. Besides, the “number and area of red and yellow puncta in the cells” value in series [1] (compared with the control group) is “significantly increase”. Besides, in the series with cancer cells (after 48 h incubation), the viability at 50 µM is around 30%. Moreover, the “patients with stable disease” value in series [2] (8-12-week follow-up assessment) was 29.7 % patients. The “patients free of progression for more than 24 weeks” value in series [2] (of the patients with stable disease) is “six”. Besides, the “toxicity and adverse effects” value in series [2] (phase I clinical trial observations) is “induced dose-limiting toxicities (DLT) and adverse effects; also recorded: induced fatigue, gastrointestinal disorders, decreased cardiac function and cardiomyopathy, bone pain, and hyperglycemia; also recorded: frequently led to renal dysfunction”.
`CCN(CC)c1ccc2c(COC(=O)C3CCC(c4nc(-c5cc6cccc(OC)c6[nH]5)c5c(N)ncnn45)CC3)cc(=O)oc2c1` (stereo not drawn) [cOSI-027]: in the series with mTORC1 signaling pathway, the “phosphorylation of S6K (marker for mTORC1 signaling)” value was “only exhibited significant inhibitory effect on mTORC1 and mTORC2 pathway after light irradiation”. The “phosphorylation of Akt (marker for mTORC2 signaling)” value in the series with mTORC2 signaling pathway was “only exhibited significant inhibitory effect on mTORC1 and mTORC2 pathway after light irradiation”. Moreover, the LC3-II/LC3-I ratio entry in the series with autophagy activity (after light irradiation (420 nm LED, 70 mW/cm^2, 3 min), compared with non-irradiation group) is recorded as “higher”. The puncta number result in series [1] (after light irradiation (420 nm LED, 70 mW/cm^2, 3 min)) is “increased”. Moreover, the cell viability entry in the series on cancer cells (50 μM, after light irradiation (420 nm LED, 70 mW/cm^2, 3 min)) is “significantly lower”. Moreover, the “release of OSI-027 (HPLC)” value in series [3] (after 1 min of 420 nm light irradiation) is “generation of OSI-027 was characterized by the new peak”. In addition, the “photocleavage (HPLC)” value in series [3] (after 3 min irradiation, 420 nm) is “almost completed”.

The term viability denotes the share of living cells, or the viability signal relative to a control. Read a high viability as less harm to the cells.
